Source: patent US20060216253A1, “Whitening cosmetics containing morus alba extracts” (Time and Cross, Inc., priority 2005, published 2006)

Key:
Murine Tyrosinase = molecular target: T1, Murine Tyrosinase (Mus musculus, UniProt P11344); assay: Inhibitory effects on murine tyrosinase prepared from melanoma B-16 cells; assay type: biochemical; conditions: tyrosinase from melanoma B-16 cells
T1 construct: supernatant was dialyzed against 50 mM sodium phosphate buffer (pH 6.8) and then used as a source of murine tyrosinase; endogenous in cells; host or cells: murine melanoma B-16 cells (Triton X-100 extract, dialysed supernatant)
T1 sequence (P11344 19-533): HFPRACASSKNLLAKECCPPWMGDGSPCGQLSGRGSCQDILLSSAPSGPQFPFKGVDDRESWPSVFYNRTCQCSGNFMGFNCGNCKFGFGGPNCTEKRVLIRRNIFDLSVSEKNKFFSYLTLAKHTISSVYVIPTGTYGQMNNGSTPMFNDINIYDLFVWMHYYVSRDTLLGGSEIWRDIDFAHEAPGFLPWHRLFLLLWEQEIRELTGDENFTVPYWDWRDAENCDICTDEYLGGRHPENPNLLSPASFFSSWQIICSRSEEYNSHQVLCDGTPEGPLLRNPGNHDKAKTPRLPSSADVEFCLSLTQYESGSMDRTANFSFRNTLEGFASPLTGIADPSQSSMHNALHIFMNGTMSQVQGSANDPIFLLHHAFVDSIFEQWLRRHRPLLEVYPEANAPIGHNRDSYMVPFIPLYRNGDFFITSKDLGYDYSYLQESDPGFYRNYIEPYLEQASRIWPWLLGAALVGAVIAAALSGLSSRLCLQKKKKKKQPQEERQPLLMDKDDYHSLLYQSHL
Method: Murine tyrosinase was prepared from the melanoma B-16 cell line. Murine melanoma B-16 cells were grown in DMEM (13.4 mg/mL of Dulbecco's modified Eagle's medium, 24 mM NaHCO3, 10 mM HEPES, 143 units/mL of penicillin G potassium, 160 μg/mL of streptomycin sulfate, pH 7.1) containing 10% fetal bovine serum (FBS) with 5% CO2 at 37° C. When the cells were confluent, melanoma cells were removed from culture dishes and washed once with PBS buffer. The cell suspension was centrifuged at 250×g for 10 min at 4° C. The cell pellet was suspended in 0.5 mL of 50 mM sodium phosphate buffer (pH 6.8) containing 0.1 mM phenylmethylsulfonyl fluoride and 0.5% Triton X-100. The cell suspension was sonicated six times for 30 sec each with 1 min intervals and then incubated at 4° C. for 1 hr to solubilize the tyrosinase. After centrifugation at 50,000×g for 20 min at 4° C., supernatant was dialyzed against 50 mM sodium phosphate buffer (pH 6.8) and then used as a source of murine tyrosinase.
As in the mushroom tyrosinase experiment discussed above, the amount of dopachrome in the reaction mixture was determined spectrophotmetrically using absorbance measurement at 490 nm.

Mushroom Tyrosinase [1] = assay: Extended duration of mushroom tyrosinase inhibition (up to 24 hours); assay type: biochemical
Method: (§1) L-Tyrosine, the substrate for tyrosinase, was dissolved in 50 mM sodium phosphate buffer (pH6.8) to prepare a solution of 0.1 mg/mL L-tyrosine. […] 100 μL of the L-tyrosine solution was introduced into a test tube, and 100 μL of 50 mM sodium phosphate buffer (pH6.8) with or without test samples were added thereto, and then 10 μL of 200 U/mL tyrosinase were mixed and incubated at 37° C. for 15 min.
Using the experimental conditions described in the Mushroom Tyrosinase experiment described above, the reaction mixtures, containing various concentrations from 1 μg/mL to 50 μg/mL of the agents assayed, were incubated at 37° C. and spectrophotometric measurements of dopachrome were made at time intervals of up to 24 hours.

Mushroom Tyrosinase [2] = assay: Inhibitory effects on mushroom tyrosinase (dopachrome, OD490, 15 min); assay type: biochemical
Method: as §1
The amount of dopachrome in the reaction mixture was determined spectrophotmetrically using absorbance measurement at 490 nm.

melan-a cell line = assay: Melanin production in melan-a cell line; assay type: cell-based; conditions: melan-a cells; for Melanin production (%): 72 hr
Method: Melan-a cells were grown in 10 mL of RPMI 1640 medium supplemented with antibiotics, 10% fetal bovine serum (FBS), and 20 nM TPA. The cell suspension was inoculated in a 24-well plate (10^5 cells/mL) and the cells were allowed to completely adhere to the plate for 24 hr. Test samples dissolved in DMSO were added to the plate and incubated at 37° C. for 72 hr in a CO2 incubator. The culture medium was then thoroughly removed and the cells were isolated through trypsin treatment. The suspensions were then centrifuged for 5 min to collect cells, which were then treated with 5% trichloroacetic acid (TCA), stirred and centrifuged to precipitate the melanin. Melanin was washed with PBS and dissolved in 1 N NaOH. Absorbance at 475 nm was measured. Melanin concentration was determined from a standard concentration curve of synthetic melanin (SIGMA Co., USA).

Human Tyrosinase = molecular target: T2, Human Tyrosinase (Homo sapiens, UniProt P14679); assay: Inhibitory effects on human tyrosinase prepared from HM3KO human melanoma cells; assay type: biochemical
T2 construct: endogenous in cells; host or cells: HM3KO human melanoma cells (Triton X-100 extract, dialysed supernatant)
T2 sequence (P14679 19-529): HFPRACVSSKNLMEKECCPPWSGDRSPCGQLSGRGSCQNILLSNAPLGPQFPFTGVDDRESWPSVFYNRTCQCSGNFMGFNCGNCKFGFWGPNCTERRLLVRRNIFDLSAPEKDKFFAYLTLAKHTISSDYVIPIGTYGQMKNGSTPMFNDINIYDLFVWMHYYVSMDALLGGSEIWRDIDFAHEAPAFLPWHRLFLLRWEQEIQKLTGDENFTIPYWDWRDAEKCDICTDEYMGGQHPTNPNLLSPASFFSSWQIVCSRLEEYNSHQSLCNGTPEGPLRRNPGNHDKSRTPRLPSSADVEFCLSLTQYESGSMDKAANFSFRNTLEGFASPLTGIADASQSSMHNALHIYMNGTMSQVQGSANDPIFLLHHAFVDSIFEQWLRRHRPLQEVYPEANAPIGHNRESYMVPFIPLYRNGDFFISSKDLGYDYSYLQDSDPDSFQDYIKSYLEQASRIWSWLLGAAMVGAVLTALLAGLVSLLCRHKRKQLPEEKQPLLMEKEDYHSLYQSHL
Method: Human tyrosinase was prepared from the HM3KO human melanoma cell line. HM3KO cells were cultured in modified Eagles medium supplemented with 10% fetal calf serum. Cultured cells were removed from culture dishes and washed once with PBS buffer and centrifuged. The cell pellet was sonicated in 100 mM sodium phosphate buffer (pH6.8) containing 0.1 mM phenylmethylsulfonyl fluoride (PMSF) and 1% Triton X-100, incubated in ice for 1 hr to solubilize the tyrosinase, and centrifuged. The supernatant was dialyzed against 50 mM sodium phosphate buffer (pH 6.8) and then used as the source of human tyrosinase for use in our inhibition assays.
As in the mushroom and murine tyrosinase experiments discussed above, the amount of dopachrome in the reaction mixture was determined spectrophotmetrically using absorbance measurement at 490 nm.

tyrosinase mRNA = assay: RT-PCR analysis of tyrosinase mRNA in murine melanoma B-16 cells; assay type: cell-based; conditions: FIG. 5
Method: To elucidate the mechanism by which Morus alba extract and mulberroside A exerts its effect, RT-PCR analysis was performed. mRNA from cultured murine melanoma B-16 cells were isolated using a Promega polytract system 1000 mRNA isolation kit. Approximately 80 to 100 μg of mRNA was isolated from 10^8 cells. We synthesized the 3′ primer 5′[…]3′ (nucleotides 197-216 from the ATG start codon) and the 5′ primer 5′[…]3′ (nucleotides 669-688 from the ATG start codon) for use in the RT-PCR analysis of tyrosinase mRNA.
This mixture was incubated for 1 minute at 94° C., then for 30 seconds at 55° C. and finally for 10 minutes at 72° C.
For PCR amplification of cDNA, 80 μL of a PCR mixture containing 8 μL of 10× chelating buffer, 1 mM MgCl2 and 50 pmole of 5′ primer was added to the reverse transcription reaction mixture. DNA amplification was performed on a Perkin Elmer Gene Amp PCR system 2400 thermal cycler. The PCR cycle conditions included melting for 30 sec at 94° C., annealing for 30 sec at 55° C., and extension for 1 min at 72° C. The PCR ran for 28 cycles, and the products (492 bp) were analyzed by 2% agarose gel electrophoresis. As an internal control, mouse β-actin mRNA was also amplified using the mouse β-actin amplimer set (Clontech, USA).

melanocytes = assay: Microscopic observation of pigmentation of confluent melanocyte monolayer; assay type: cell-based; conditions: cell line not specified
From the text: The pigmentation of a confluent monolayer of melanocytes is visible microscopically, as the cells contain black melanin pigment.

[3] = test system: murine melanoma B16 cells; assay: Melanin production in murine melanoma B-16 cells; assay type: cell-based; conditions: for Melanin production (%): B16 cells, 3 days
Method: The melanoma cell line was grown in DMEM culture medium containing 4.5 g of glucose/l, 10% fetal bovine serum and 1% antibiotic agent and cultivated at 37° C. under a condition of 5% CO2. The cell suspension was inoculated in a 50 mL T-flask (3×10^5 cells/mL) and the cells were allowed to completely adhere to the plate for 24 hr. Then, test samples diluted in DMEM medium at concentrations of 1, 5, 10, 50, and 100 μg/mL were added to the cultivated cells, and the mixture was cultivated at 5% CO2 and 37° C. for 3 days. After cultivation, culture medium was thoroughly removed and the cells were isolated via trypsin treatment. The suspensions were then centrifuged for 5 min to collect cells. The obtained cells were treated with 5% trichloroacetic acid (TCA), stirred and centrifuged. The precipitated melanin was washed with phosphate buffered saline (PBS), and treated with 1 N NaOH to dissolve the melanin therein. Absorbance at 475 nm was measured. Melanin concentration was determined from a standard concentration curve of synthetic melanin (SIGMA Co., USA).

OC[C@H]1O[C@@H](Oc2cc(O)cc(/C=C/c3ccc(O[C@@H]4O[C@H](CO)[C@@H](O)[C@H](O)[C@H]4O)cc3O)c2)[C@H](O)[C@@H](O)[C@@H]1O [Mulberroside A, mulberroside A]
IC50 (Murine Tyrosinase): 61.5 µM | fold stronger inhibitory effect on tyrosinase activity than kojic acid (Mushroom Tyrosinase [1]; from IC50 values after 24 hours incubation): 12 fold | IC50 (Mushroom Tyrosinase [1]; read-out: IC50 for tyrosinase inhibition after 24 hours incubation, 24 hours incubation): 20 µM | IC50 (Mushroom Tyrosinase [2]; 37° C., 15 min, L-tyrosine substrate): 9.5 µM | inhibitory effect on mushroom tyrosinase (in words) (Mushroom Tyrosinase [2]; FIGS. 1 and 2): the most potent inhibitors of mushroom tyrosinase | Melanin production (%) (melan-a cell line; 1 μg/mL): 98.5 ± 7.2% | Melanin production (%) (melan-a cell line; 5 μg/mL): 93.6 ± 4.8% | Melanin production (%) (melan-a cell line; 10 μg/mL): 92.8 ± 6.5% | Melanin production (%) (melan-a cell line; 50 μg/mL): 61.2 ± 8.0% | reduction in melanin production (melan-a cell line; 100 μg/mL): 76.3% | Melanin production (%) (melan-a cell line; 100 μg/mL): 23.7 ± 3.8% | IC50 (Human Tyrosinase): 76.8 µM | amount of tyrosinase mRNA (tyrosinase mRNA): decreased the amount of tyrosinase mRNA in a dose-dependent manner | pigmentation of treated cells observed microscopically (melanocytes): Reduced pigmentation | Melanin production (%) ([3]; 1 μg/mL): 98.3 ± 1.0% | Melanin production (%) ([3]; 5 μg/mL): 92.4 ± 2.1% | Melanin production (%) ([3]; 10 μg/mL): 91.2 ± 7.3% | Melanin production (%) ([3]; 50 μg/mL): 59.8 ± 9.0% | Melanin production (%) ([3]; 100 μg/mL): 21.8 ± 5.4% | reduction in melanin production ([3]; melanoma B-16 cells, 100 μg/mL): 78.2%
